From PubChem BioAssay (NCI)
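48-hour exposure; five concentrations; linearly interpolated endpoints. At the TGI there is no net growth.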

Tests used:
Assay in all cases: NCI tumour cell line growth inhibition, 48 h
RPMI-8226 leukemia = tested on: RPMI-8226 leukemia
HL-60(TB) leukemia = tested on: HL-60(TB) leukemia
BT-549 breast = tested on: BT-549 breast
RXF 393 renal = tested on: RXF 393 renal
SN12C renal = tested on: SN12C renal
OVCAR-8 ovarian = tested on: OVCAR-8 ovarian
CCRF-CEM leukemia = tested on: CCRF-CEM leukemia
HOP-62 NSCLC = tested on: HOP-62 NSCLC
SW-620 colon = tested on: SW-620 colon
SF-539 CNS = tested on: SF-539 CNS

Row | Compound | TGI (RPMI-8226 leukemia) [µM] | TGI (HL-60(TB) leukemia) [µM] | TGI (BT-549 breast) [µM] | TGI (RXF 393 renal) [µM] | TGI (SN12C renal) [µM] | TGI (OVCAR-8 ovarian) [µM] | TGI (CCRF-CEM leukemia) [µM] | TGI (HOP-62 NSCLC) [µM] | TGI (SW-620 colon) [µM] | TGI (SF-539 CNS) [µM]
1 | N#Cc1ccnc(C(=O)N2CCCC2C(=O)O)c1 (centres undefined) | > 100 | > 100 | > 100 | > 100 | > 100 | > 100 | > 100 | > 100 | > 100 | > 100
2 | Brc1ccc2[nH]cc(-c3csc(-c4c[nH]c5ccc(Br)cc45)n3)c2c1 | 3.4 | 12.7 | 18 | 6.13 | 10.3 | 7.22 | 3.93 | 13.7 | 4.42 | 2.9
3 | CC(=O)Oc1ccc2c(c1)O/C(=C\c1ccc(O)cc1)C2=O | > 100 | > 100 | > 100 | > 100 | > 100 | > 100 | > 100 | > 100 | > 100 | > 100
4 | Nc1cc2nc(-c3ccccc3)cn2cn1 | > 100 | > 100 | > 100 | > 100 | > 100 | > 100 | > 100 | > 100 | > 100 | > 100
5 | O=c1[nH]nc(-c2ccc([N+](=O)[O-])cc2)[nH]1 | > 100 | > 100 | > 100 | > 100 | > 100 | > 100 | > 100 | > 100 | > 100 | > 100
6 | O=C1CCC(CCc2nc3ccccc3[nH]2)(c2ccccc2)C(=O)N1 (centres undefined) | > 100 | > 100 | > 100 | > 100 | > 100 | > 100 | > 100 | > 100 | > 100 | > 100
7 | COC(=O)Cc1c2n(c3ccccc13)C(=O)N1c3ccccc3C(CC(=O)OC)C21 (centres undefined) | > 100 | > 100 | 93.9 | 64 | > 100 | > 100 | > 100 | 38.5 | > 100 | 49.4
8 | CCCCCc1cc(CCCC)sc1-c1ccco1 | > 100 | 58.8 | > 100 | > 100 | > 100 | > 100 | > 75 | > 100 | > 100 | > 100
9 | COc1ccc2c(c1)CCC(CN1CCN(CCOC(c3ccccc3)c3ccccc3)CC1)C2O (centres undefined) | 35.3 | 15.2 | 27.1 | 29.3 | 26.8 | 28.9 | 53.4 | 38.3 | 60.1 | 26.4
10 | C=CCN(c1cc(OC)c2[nH]c(C(=O)O)c(C)c2c1[N+](=O)[O-])S(C)(=O)=O | > 100 | > 100 | > 100 | > 100 | > 100 | > 100 | > 100 | > 100 | > 100 | > 100
11 | O=C1CCCC2=C1CC1=C(CCCC1=O)N2c1ccc(-c2ccccc2)cc1 | > 100 | > 100 | > 100 | > 58.9 | > 100 | > 100 | > 100 | > 100 | > 100 | > 100
12 | Cc1cccc2c(N)c3cccc(C(=O)NCC[N+](C)(C)[O-])c3nc12 | > 100 | > 100 | 41.8 | 27.5 | > 100 | 36.6 | > 100 | 36.5 | > 100 | 36.7
13 | CC(C)(C)[Si](C)(C)OC1CCOC1(O)c1ccccn1 (centres undefined) | > 100 | > 100 | > 100 | > 100 | > 100 | > 100 | > 100 | > 100 | > 100 | > 100
14 | C[N+]1(CCCCN2c3ccccc3Sc3cc(N=[N+]=[N-])ccc32)CCN(C(=O)CCNC(=O)Cc2ccc(C(=O)c3ccccc3)cc2)CC1 | 61.4 | 35.5 | > 71.4 | > 80 | 53.5 | > 100 | 64.2 | 44.9 | > 74.6 | > 76.9
15 | C/C(=C\CO)CC[C@@H]1[C@@]2(C)CCCC(C)(C)[C@@H]2CC[C@@]1(C)O | 36.5 | 45.7 | 32.6 | 35 | 33.8 | 31.8 | 51.5 |  | 50.5 | 32.4
16 | O=c1cccc2n1CC1CNCC2C1 (centres undefined) | > 100 | > 100 | > 100 | > 100 | > 100 | > 100 | > 100 | > 100 | > 100 | > 100
17 | OC(CCN1CCN(CCOC(c2ccc(F)cc2)c2ccc(F)cc2)CC1)c1ccc(Br)cc1 (centres undefined) | 6.93 | 11.2 | 12.5 | 10 | 7.12 | 4.1 | 11.7 | 14.5 | 31.2 | 5.15
18 | Cc1nc2ccccc2n1Cc1ccc(NC(=S)Nc2ccccc2)cc1 | > 100 | > 100 | > 100 | > 100 | > 100 | > 100 | > 100 | > 100 | > 100 | > 100
